Results from PubChem BioAssay AID624008 (Vanderbilt Specialized Chemistry Center, 2012).
Calls of active or inactive are those of the source. No rule for the calls is given here.

Target: Phospholipase D1 (Homo sapiens) + Phospholipase D1 (Homo sapiens) (UniProt Q13393+Q13393)
Assay: phospholipase D1 activity inhibition in cells – Calu-1 cells, Lib32, assay 1A (AID 624008)
Details: PLD1 cellular activity, percent of control, stronger effect = lower value, concentration not given here

Sequence of Phospholipase D1 (Homo sapiens) + Phospholipase D1 (Homo sapiens) (Q13393 whole entry, looked up): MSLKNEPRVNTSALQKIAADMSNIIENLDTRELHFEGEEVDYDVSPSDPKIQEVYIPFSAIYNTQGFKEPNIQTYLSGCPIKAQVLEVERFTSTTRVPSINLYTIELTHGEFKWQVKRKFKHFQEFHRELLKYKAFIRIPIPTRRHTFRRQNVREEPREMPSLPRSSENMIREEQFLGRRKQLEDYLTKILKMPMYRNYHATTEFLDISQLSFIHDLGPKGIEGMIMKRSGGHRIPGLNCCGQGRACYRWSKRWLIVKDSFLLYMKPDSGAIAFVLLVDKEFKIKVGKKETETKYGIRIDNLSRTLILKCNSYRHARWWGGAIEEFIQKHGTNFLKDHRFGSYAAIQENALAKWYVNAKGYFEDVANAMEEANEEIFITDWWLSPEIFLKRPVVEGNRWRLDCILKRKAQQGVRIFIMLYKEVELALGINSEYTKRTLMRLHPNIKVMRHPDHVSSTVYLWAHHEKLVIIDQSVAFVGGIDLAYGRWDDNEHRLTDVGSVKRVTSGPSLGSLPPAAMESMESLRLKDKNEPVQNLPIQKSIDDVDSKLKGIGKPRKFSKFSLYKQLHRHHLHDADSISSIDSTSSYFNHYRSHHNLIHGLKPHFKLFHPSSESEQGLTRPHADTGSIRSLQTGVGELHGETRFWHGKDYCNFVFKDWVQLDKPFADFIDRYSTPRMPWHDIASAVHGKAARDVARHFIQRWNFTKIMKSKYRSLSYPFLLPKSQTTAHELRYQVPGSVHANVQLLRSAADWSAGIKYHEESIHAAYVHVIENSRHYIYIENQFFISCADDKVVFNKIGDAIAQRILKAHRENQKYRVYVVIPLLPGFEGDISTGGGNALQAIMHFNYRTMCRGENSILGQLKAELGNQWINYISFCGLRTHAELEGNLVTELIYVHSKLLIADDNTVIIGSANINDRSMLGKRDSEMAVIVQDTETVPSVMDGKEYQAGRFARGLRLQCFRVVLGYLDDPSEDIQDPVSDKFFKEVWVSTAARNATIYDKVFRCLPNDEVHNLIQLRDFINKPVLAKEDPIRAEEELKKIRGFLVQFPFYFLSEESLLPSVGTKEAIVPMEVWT
Sequence of Phospholipase D1 (Homo sapiens) + Phospholipase D1 (Homo sapiens) (Q13393 whole entry, looked up): as above

Row | Compound | remaining activity
1 | C[C@@H](CN1CCC2(CC1)C(=O)NCN2c1cccc(F)c1)NC(=O)c1ccc(F)cc1 | 24%
2 | C[C@@H](CN1CCC2(CC1)C(=O)NCN2c1cccc(F)c1)NC(=O)c1cccc(C(F)(F)F)c1 | 82.3% (inactive)
3 | COc1cc(C(=O)N[C@@H](C)CN2CCC3(CC2)C(=O)NCN3c2cccc(F)c2)cc(OC)c1OC | 9.86%
4 | O=C(NCCN1CCC2(CC1)C(=O)NCN2c1cccc(F)c1)c1cccc2c1OCO2 | 102% (inactive)
5 | C[C@@H](CN1CCC2(CC1)C(=O)NCN2c1cccc(F)c1)NC(=O)Cc1ccc(F)cc1 | 102% (inactive)
6 | O=C(Cc1ccc(F)cc1)NCCN1CCC2(CC1)C(=O)NCN2c1cccc(F)c1 | 99.3% (inactive)
7 | C[C@@H](CN1CCC2(CC1)C(=O)NCN2c1cccc(F)c1)NC(=O)c1c(F)ccc(F)c1Cl | 81.7% (inactive)
8 | O=C(NCCN1CCC2(CC1)C(=O)NCN2c1cccc(F)c1)c1cccc(C(F)(F)F)c1 | 94.8% (inactive)
9 | C[C@@H](CN1CCC2(CC1)C(=O)NCN2c1cccc(F)c1)NC(=O)c1cccc2ccccc12 | 64.5%
10 | C[C@@H](CN1CCC2(CC1)C(=O)NCN2c1cccc(F)c1)NC(=O)c1cccc([N+](=O)[O-])c1 | 28.6%
11 | COc1cc(C(=O)NCCN2CCC3(CC2)C(=O)NCN3c2cccc(F)c2)cc(OC)c1OC | 113% (inactive)
12 | O=C(NCCN1CCC2(CC1)C(=O)NCN2c1cccc(F)c1)c1ccccn1 | 93.5% (inactive)
13 | C[C@@H](CN1CCC2(CC1)C(=O)NCN2c1cccc(F)c1)NC(=O)c1ccc(Cl)cc1Cl | 71.6%
14 | O=C(NCCN1CCC2(CC1)C(=O)NCN2c1cccc(F)c1)c1cccc2ccccc12 | 102% (inactive)
15 | C[C@@H](CN1CCC2(CC1)C(=O)NCN2c1cccc(F)c1)NC(=O)c1cccc(F)c1 | 45.7%
16 | O=C(NCCN1CCC2(CC1)C(=O)NCN2c1cccc(F)c1)c1ccc(Br)cc1 | 98.5% (inactive)
17 | O=C(NCCN1CCC2(CC1)C(=O)NCN2c1cccc(F)c1)c1ccc(Cl)cc1Cl | 107% (inactive)
18 | C[C@@H](CN1CCC2(CC1)C(=O)NCN2c1cccc(F)c1)NC(=O)c1ccc(Br)cc1 | 10.2%
19 | O=C(c1ccc(F)cc1)N(CCN1CCC2(CC1)C(=O)NCN2c1cccc(F)c1)C(=O)c1ccc(F)cc1 | 109% (inactive)
20 | O=C(NCCN1CCC2(CC1)C(=O)NCN2c1cccc(F)c1)c1c(F)ccc(F)c1Cl | 106% (inactive)
21 | O=C(NCCN1CCC2(CC1)C(=O)NCN2c1cccc(F)c1)c1cccc([N+](=O)[O-])c1 | 101% (inactive)
22 | C[C@@H](CN1CCC2(CC1)C(=O)NCN2c1cccc(F)c1)NC(=O)c1ccc(F)c(F)c1 | 10.1%
23 | C[C@@H](CN1CCC2(CC1)C(=O)NCN2c1cccc(F)c1)NC(=O)c1ccc(F)cc1F | 28.8%
24 | O=C(NCCN1CCC2(CC1)C(=O)NCN2c1cccc(F)c1)c1ccc(F)cc1 | 102% (inactive)
25 | C[C@@H](CN1CCC2(CC1)C(=O)NCN2c1cccc(F)c1)NC(=O)c1ccccc1I | 91.6% (inactive)
26 | O=C(NCCN1CCC2(CC1)C(=O)NCN2c1cccc(F)c1)c1ccc(F)cc1F | 99% (inactive)
27 | O=C(NCCN1CCC2(CC1)C(=O)NCN2c1cccc(F)c1)c1ccccc1I | 99.7% (inactive)
28 | C[C@@H](CN1CCC2(CC1)C(=O)NCN2c1cccc(F)c1)NC(=O)c1c(F)cccc1F | 75.1%
